Legend:
Format in all cases: cell-based, Pseudomonas aeruginosa
[1] = system: PAO1 and PAO1 TnoprD producing one of eight different carbapenemases; experiment: MIC and checkerboard, isogenic strains as a group
Description: Pseudomonas aeruginosa isolate, PAO1, was used alongside its isogenic counterpart, PAO1 TnoprD, which lacks a functional OprD porin (Held et al. [2012]). β-lactamases, blaIMP-1, blaIMP-10, blaIMP-13, blaNDM-1, blaSPM-1, blaVIM-1, blaVIM-2, and blaKPC-2, had previously been cloned into the pUCP24 shuttle vector (Bouvier et al. [2025]), and were transformed by electroporation into both PAO1 and PAO1 TnoprD.
. MICs of DMSA, CAZ, FEP and checkerboards for the combinations, CAZ/DMSA and FEP/DMSA, were performed for all clinical isolates. All susceptibility testing results were interpreted according to CLSI guidelines (CLSI [2023]). The fractional inhibitory concentration index (FICI) was calculated and interpreted as follows: the MIC of drug A in combination/the MIC of drug A alone + the MIC of drug B in combination/the MIC drug B alone. FICI ≤ 0.5 = synergy; 0.5 < FICI ≤ 1 = additive; FICI 1 < FICI < 2 = indifference, and FICI ≥ 2 = antagonism. All susceptibility testing/checkerboard assays were performed in triplicate.

[2] = system: clinical isolate D32 (Permeability); experiment: microbe, parasite or virus in culture
Description: (§1) Thirty-two carbapenem-resistant clinical P. aeruginosa, with previously defined carbapenem-resistance mechanisms, were included.
(§2) The fractional inhibitory concentration index (FICI) was calculated and interpreted as follows: the MIC of drug A in combination/the MIC of drug A alone + the MIC of drug B in combination/the MIC drug B alone. FICI ≤ 0.5 = synergy; 0.5 < FICI ≤ 1 = additive; FICI 1 < FICI < 2 = indifference, and FICI ≥ 2 = antagonism. All susceptibility testing/checkerboard assays were performed in triplicate.

[3] = system: clinical isolate D17 (IMP-13); experiment: microbe, parasite or virus in culture
Description: as §1, §2

[4] = system: clinical isolate D26 (VIM-4); experiment: microbe, parasite or virus in culture
Description: as §1, §2

[5] = system: clinical isolate D19 (IMP-4, OXA-181, VIM-5); experiment: microbe, parasite or virus in culture
Description: as §1, §2

[6] = system: clinical isolate D13 (IMP-7); experiment: microbe, parasite or virus in culture
Description: as §1, §2

[7] = system: clinical isolate D1 (IMP-1); experiment: microbe, parasite or virus in culture
Description: as §1, §2

[8] = system: clinical isolate D6 (IMP-1); experiment: microbe, parasite or virus in culture
Description: as §1, §2

[9] = system: clinical isolate D30 (KPC-2); experiment: microbe, parasite or virus in culture
Description: as §1, §2

[10] = system: clinical isolate D8 (IMP-4); experiment: microbe, parasite or virus in culture
Description: as §1, §2

[11] = system: clinical isolate D4 (IMP-1); experiment: microbe, parasite or virus in culture
Description: as §1, §2

[12] = system: clinical isolate D11 (IMP-7); experiment: microbe, parasite or virus in culture
Description: as §1, §2

[13] = system: clinical isolate D27 (VIM-36); experiment: microbe, parasite or virus in culture
Description: as §1, §2

[14] = system: clinical isolate D18 (IMP-18); experiment: microbe, parasite or virus in culture
Description: as §1, §2

[15] = system: clinical isolate D21 (NDM-1); experiment: microbe, parasite or virus in culture
Description: as §1, §2

[16] = system: clinical isolate D31 (Permeability); experiment: microbe, parasite or virus in culture
Description: as §1, §2

[17] = system: clinical isolate D14 (IMP-10); experiment: microbe, parasite or virus in culture
Description: as §1, §2

[18] = system: clinical isolate D10 (IMP-7); experiment: microbe, parasite or virus in culture
Description: as §1, §2

[19] = system: clinical isolate D23 (VIM-2); experiment: microbe, parasite or virus in culture
Description: as §1, §2

[20] = system: clinical isolate D28 (GES-5, OXA-181); experiment: microbe, parasite or virus in culture
Description: as §1, §2

[21] = system: clinical isolate D5 (IMP-1); experiment: microbe, parasite or virus in culture
Description: as §1, §2

[22] = system: clinical isolate D9 (IMP-7); experiment: microbe, parasite or virus in culture
Description: as §1, §2

[23] = system: clinical isolate D29 (KPC-2); experiment: microbe, parasite or virus in culture
Description: as §1, §2

[24] = system: clinical isolate D16 (IMP-13); experiment: microbe, parasite or virus in culture
Description: as §1, §2

[25] = system: clinical isolate D24 (VIM-2); experiment: microbe, parasite or virus in culture
Description: as §1, §2

[26] = system: clinical isolate D12 (IMP-7); experiment: microbe, parasite or virus in culture
Description: as §1, §2

[27] = system: clinical isolate D25 (VIM-4); experiment: microbe, parasite or virus in culture
Description: as §1, §2

[28] = system: clinical isolate D2 (IMP-1); experiment: microbe, parasite or virus in culture
Description: as §1, §2

[29] = system: clinical isolate D22 (NDM-1, VIM-2); experiment: microbe, parasite or virus in culture
Description: as §1, §2

[30] = system: clinical isolate D20 (NDM-1); experiment: microbe, parasite or virus in culture
Description: as §1, §2

[31] = system: clinical isolate D7 (IMP-1); experiment: microbe, parasite or virus in culture
Description: as §1, §2

[32] = system: clinical isolate D15 (IMP-13); experiment: microbe, parasite or virus in culture
Description: as §1, §2

[33] = system: clinical isolate D3 (IMP-1); experiment: microbe, parasite or virus in culture
Description: as §1, §2

CC(C)(O/N=C(\C(=O)N[C@@H]1C(=O)N2C(C(=O)[O-])=C(C[n+]3ccccc3)CS[C@H]12)c1csc(N)n1)C(=O)O [CAZ, ceftazidime]
interaction with DMSA as indicated by the FICIs ([1]; SPM-1 and VIM-1 strains, DMSA 200 mg/l): synergy (FICI ≤ 0.5 = synergy) | interaction with DMSA as indicated by the FICIs ([1]; strains producing IMP-1, IMP-10 or IMP-13, with and without functional OprD, all three DMSA concentrations (100, 200, 300 mg/l)): synergy (FICI ≤ 0.5 = synergy) | MIC ([2]; Pseudomonas aeruginosa): 16 µg/mL | MIC ([3]; Pseudomonas aeruginosa): 256 µg/mL | MIC ([4]; Pseudomonas aeruginosa): 128 µg/mL | MIC ([5]; Pseudomonas aeruginosa): 4100 µg/mL | MIC ([6]; Pseudomonas aeruginosa): 512 µg/mL | MIC ([7]; Pseudomonas aeruginosa): 1020 µg/mL | MIC ([8]; Pseudomonas aeruginosa): 512 µg/mL | MIC ([9]; Pseudomonas aeruginosa): 64 µg/mL | MIC ([10]; Pseudomonas aeruginosa): 2050 µg/mL | MIC ([11]; Pseudomonas aeruginosa): 1020 µg/mL | MIC ([12]; Pseudomonas aeruginosa): 512 µg/mL | MIC ([13]; Pseudomonas aeruginosa): 512 µg/mL | MIC ([14]; Pseudomonas aeruginosa): 1020 µg/mL | MIC ([15]; Pseudomonas aeruginosa): 4100 µg/mL | MIC ([16]; Pseudomonas aeruginosa): 128 µg/mL | MIC ([17]; Pseudomonas aeruginosa): 1020 µg/mL | MIC ([18]; Pseudomonas aeruginosa): 512 µg/mL | MIC ([19]; Pseudomonas aeruginosa): 32 µg/mL | MIC ([20]; Pseudomonas aeruginosa): 16 µg/mL | MIC ([21]; Pseudomonas aeruginosa): 512 µg/mL | MIC ([22]; Pseudomonas aeruginosa): 256 µg/mL | MIC ([23]; Pseudomonas aeruginosa): 16 µg/mL | MIC ([24]; Pseudomonas aeruginosa): 512 µg/mL | MIC ([25]; Pseudomonas aeruginosa): 32 µg/mL | MIC ([26]; Pseudomonas aeruginosa): 512 µg/mL | MIC ([27]; Pseudomonas aeruginosa): 32 µg/mL | MIC ([28]; Pseudomonas aeruginosa): 1020 µg/mL | MIC ([29]; Pseudomonas aeruginosa): 4100 µg/mL | MIC ([30]; Pseudomonas aeruginosa): 4100 µg/mL | MIC ([31]; Pseudomonas aeruginosa): 1020 µg/mL | MIC ([32]; Pseudomonas aeruginosa): 512 µg/mL | MIC ([33]; Pseudomonas aeruginosa): 512 µg/mL

O=C(O)[C@@H](S)[C@@H](S)C(=O)O [DMSA, meso-dimercaptosuccinic acid]
MIC to DMSA alone ([1]; all isogenic strains): 900 µg/mL | MIC ([2]; isolate D32, drug alone): 700 µg/mL | MIC ([3]; isolate D17, drug alone): 700 µg/mL | MIC ([4]; isolate D26, drug alone): 700 µg/mL | MIC ([5]; isolate D19, drug alone): 600 µg/mL | MIC ([6]; isolate D13, drug alone): 700 µg/mL | MIC ([7]; isolate D1, drug alone): 600 µg/mL | MIC ([8]; isolate D6, drug alone): 800 µg/mL | MIC ([9]; isolate D30, drug alone): 800 µg/mL | MIC ([10]; isolate D8, drug alone): 500 µg/mL | MIC ([11]; isolate D4, drug alone): 900 µg/mL | MIC ([12]; isolate D11, drug alone): 600 µg/mL | MIC ([13]; isolate D27, drug alone): 800 µg/mL | MIC ([14]; isolate D18, drug alone): 600 µg/mL | MIC ([15]; isolate D21, drug alone): 700 µg/mL | MIC ([16]; isolate D31, drug alone): 1000 µg/mL | MIC ([17]; isolate D14, drug alone): 900 µg/mL | MIC ([18]; isolate D10, drug alone): 600 µg/mL | MIC ([19]; isolate D23, drug alone): 700 µg/mL | MIC ([20]; isolate D28, drug alone): 600 µg/mL | MIC ([21]; isolate D5, drug alone): 800 µg/mL | MIC ([22]; isolate D9, drug alone): 700 µg/mL | MIC ([23]; isolate D29, drug alone): 800 µg/mL | MIC ([24]; isolate D16, drug alone): 600 µg/mL | MIC ([25]; isolate D24, drug alone): 600 µg/mL | MIC ([26]; isolate D12, drug alone): 600 µg/mL | MIC ([27]; isolate D25, drug alone): 600 µg/mL | MIC ([28]; isolate D2, drug alone): 600 µg/mL | MIC ([29]; isolate D22, drug alone): 700 µg/mL | MIC ([30]; isolate D20, drug alone): 700 µg/mL | MIC ([31]; isolate D7, drug alone): 800 µg/mL | MIC ([32]; isolate D15, drug alone): 500 µg/mL | MIC ([33]; isolate D3, drug alone): 700 µg/mL

From article PMC12147714 (FEMS Microbiology Letters, 2025)
